In US12377104B1, “Methods for treating a fatty liver disease” (Madrigal Pharmaceuticals, Inc., priority 2024, dated 2025):
Like-named read-outs stand apart in the source and are kept apart here.

Test: Resmetirom exposure parameters by dose, quartile and body weight
Assay type: in vivo, human
Settings: for AUC / Cmax: human, in vivo, oral
Experimental: Various body weight cutoffs for dosing were evaluated.

CC(C)c1cc(Oc2c(Cl)cc(-n3nc(C#N)c(=O)[nH]c3=O)cc2Cl)n[nH]c1=O [Resmetirom, 2-(3,5-dichloro-4-((5-isopropyl-6-oxo-1,6-dihydropyridazin-3-yl)oxy)phenyl)-3,5-dioxo-2,3,4,5-tetrahydro-1,2,4-triazine-6-carbonitrile]
Cmin,ss Geometric Mean (80 mg, 80-<90 kg): 20.7 ng/mL
Cmin,ss Mean (80 mg, 80-<90 kg): 55.9 ng/mL
Cmin,ss Median (80 mg, 80-<90 kg): 18.4 ng/mL
t1/2α Geometric Mean (80 mg, 80-<90 kg): 1.21 h
t1/2α Mean (80 mg, 80-<90 kg): 1.34 h
t1/2α Median (80 mg, 80-<90 kg): 1.24 h
t1/2β Geometric Mean (80 mg, 80-<90 kg): 5.15 h
t1/2β Mean (80 mg, 80-<90 kg): 6.04 h
t1/2β Median (80 mg, 80-<90 kg): 4.41 h
Cmin,ss Geometric Mean (80 mg, 90-<100 kg): 14.2 ng/mL
Cmin,ss Mean (80 mg, 90-<100 kg): 52.0 ng/mL
Cmin,ss Median (80 mg, 90-<100 kg): 12.0 ng/mL
t1/2α Geometric Mean (80 mg, 90-<100 kg): 1.10 h
t1/2α Mean (80 mg, 90-<100 kg): 1.21 h
t1/2α Median (80 mg, 90-<100 kg): 1.02 h
t1/2β Geometric Mean (80 mg, 90-<100 kg): 4.81 h
t1/2β Mean (80 mg, 90-<100 kg): 5.50 h
t1/2β Median (80 mg, 90-<100 kg): 4.29 h
Cmin,ss Geometric Mean (80 mg, 100-<110 kg): 13.2 ng/mL
Cmin,ss Mean (80 mg, 100-<110 kg): 37.3 ng/mL
Cmin,ss Median (80 mg, 100-<110 kg): 14.1 ng/mL
t1/2α Geometric Mean (80 mg, 100-<110 kg): 1.12 h
t1/2α Mean (80 mg, 100-<110 kg): 1.26 h
t1/2α Median (80 mg, 100-<110 kg): 1.12 h
t1/2β Geometric Mean (80 mg, 100-<110 kg): 4.99 h
t1/2β Mean (80 mg, 100-<110 kg): 5.86 h
t1/2β Median (80 mg, 100-<110 kg): 4.50 h
Cmin,ss Geometric Mean (80 mg, <80 kg): 26.7 ng/mL
Cmin,ss Mean (80 mg, <80 kg): 72.8 ng/mL
Cmin,ss Median (80 mg, <80 kg): 25.5 ng/mL
t1/2α Geometric Mean (80 mg, <80 kg): 1.13 h
t1/2α Mean (80 mg, <80 kg): 1.27 h
t1/2α Median (80 mg, <80 kg): 1.15 h
t1/2β Geometric Mean (80 mg, <80 kg): 5.03 h
t1/2β Mean (80 mg, <80 kg): 5.44 h
t1/2β Median (80 mg, <80 kg): 4.53 h
Percentage of Cave,ss in quartile (80 mg; Q1: [20-155) ng/mL): 31%
Percentage of Cave,ss in quartile (80 mg; Q2: [155-219) ng/mL): 31%
Percentage of Cave,ss in quartile (80 mg; Q3: [219-321) ng/mL): 22%
Percentage of Cave,ss in quartile (80 mg, Q4: [321-1326] ng/mL): 17%
Cmin,ss Geometric Mean (80 mg, ≥110 kg): 11.5 ng/mL
Cmin,ss Mean (80 mg, ≥110 kg): 26.0 ng/mL
Cmin,ss Median (80 mg, ≥110 kg): 9.77 ng/mL
t1/2α Geometric Mean (80 mg, ≥110 kg): 1.16 h
t1/2α Mean (80 mg, ≥110 kg): 1.30 h
t1/2α Median (80 mg, ≥110 kg): 1.11 h
t1/2β Geometric Mean (80 mg, ≥110 kg): 4.94 h
t1/2β Mean (80 mg, ≥110 kg): 5.30 h
t1/2β Median (80 mg, ≥110 kg): 4.45 h
Cmin,ss Geometric Mean (100 mg, 80-<90 kg): 32.0 ng/mL
Cmin,ss Mean (100 mg, 80-<90 kg): 100 ng/mL
Cmin,ss Median (100 mg, 80-<90 kg): 22.2 ng/mL
t1/2α Geometric Mean (100 mg, 80-<90 kg): 1.16 h
t1/2α Mean (100 mg, 80-<90 kg): 1.30 h
t1/2α Median (100 mg, 80-<90 kg): 1.08 h
t1/2β Geometric Mean (100 mg, 80-<90 kg): 5.58 h
t1/2β Mean (100 mg, 80-<90 kg): 7.13 h
t1/2β Median (100 mg, 80-<90 kg): 4.43 h
Cmin,ss Geometric Mean (100 mg, 90-<100 kg): 41.7 ng/mL
Cmin,ss Mean (100 mg, 90-<100 kg): 113 ng/mL
Cmin,ss Median (100 mg, 90-<100 kg): 51.0 ng/mL
t1/2α Geometric Mean (100 mg, 90-<100 kg): 1.39 h
t1/2α Mean (100 mg, 90-<100 kg): 1.54 h
t1/2α Median (100 mg, 90-<100 kg): 1.37 h
t1/2β Geometric Mean (100 mg, 90-<100 kg): 6.21 h
t1/2β Mean (100 mg, 90-<100 kg): 8.49 h
t1/2β Median (100 mg, 90-<100 kg): 5.29 h
Cmin,ss Geometric Mean (100 mg, 100-<110 kg): 26.5 ng/mL
Cmin,ss Mean (100 mg, 100-<110 kg): 65.4 ng/mL
Cmin,ss Median (100 mg, 100-<110 kg): 22.1 ng/mL
t1/2α Geometric Mean (100 mg, 100-<110 kg): 1.14 h
t1/2α Mean (100 mg, 100-<110 kg): 1.30 h
t1/2α Median (100 mg, 100-<110 kg): 1.34 h
t1/2β Geometric Mean (100 mg, 100-<110 kg): 5.55 h
t1/2β Mean (100 mg, 100-<110 kg): 7.08 h
t1/2β Median (100 mg, 100-<110 kg): 4.65 h
Cmin,ss Geometric Mean (100 mg, <80 kg): 31.4 ng/mL
Cmin,ss Mean (100 mg, <80 kg): 119 ng/mL
Cmin,ss Median (100 mg, <80 kg): 29.7 ng/mL
t1/2α Geometric Mean (100 mg, <80 kg): 1.26 h
t1/2α Mean (100 mg, <80 kg): 1.47 h
t1/2α Median (100 mg, <80 kg): 1.44 h
t1/2β Geometric Mean (100 mg, <80 kg): 5.36 h
t1/2β Mean (100 mg, <80 kg): 6.85 h
t1/2β Median (100 mg, <80 kg): 4.41 h
Percentage of Cave,ss in quartile (100 mg; Q1: [20-155) ng/mL): 19%
Percentage of Cave,ss in quartile (100 mg; Q2: [155-219) ng/mL): 19%
Percentage of Cave,ss in quartile (100 mg; Q3: [219-321) ng/mL): 28%
Percentage of Cave,ss in quartile (100 mg, Q4: [321-1326] ng/mL): 34%
Cmin,ss Geometric Mean (100 mg, ≥110 kg): 16.2 ng/mL
Cmin,ss Mean (100 mg, ≥110 kg): 43.4 ng/mL
Cmin,ss Median (100 mg, ≥110 kg): 12.8 ng/mL
t1/2α Geometric Mean (100 mg, ≥110 kg): 1.24 h
t1/2α Mean (100 mg, ≥110 kg): 1.38 h
t1/2α Median (100 mg, ≥110 kg): 1.30 h
t1/2β Geometric Mean (100 mg, ≥110 kg): 5.32 h
t1/2β Mean (100 mg, ≥110 kg): 6.33 h
t1/2β Median (100 mg, ≥110 kg): 4.50 h
AUC (80 mg, 80-<90 kg, read-out: AUCtau,ss Geometric Mean): 6010 ng·h/mL
AUC (80 mg, 80-<90 kg, read-out: AUCtau,ss Mean): 6660 ng·h/mL
AUC (80 mg, 80-<90 kg, read-out: AUCtau,ss Median): 5750 ng·h/mL
Cmax (80 mg, 80-<90 kg, read-out: Cmax,ss Geometric Mean): 816 ng/mL
Cmax (80 mg, 80-<90 kg, read-out: Cmax,ss Mean): 869 ng/mL
Cmax (80 mg, 80-<90 kg, read-out: Cmax,ss Median): 870 ng/mL
AUC (80 mg, 90-<100 kg, read-out: AUCtau,ss Geometric Mean): 5060 ng·h/mL
AUC (80 mg, 90-<100 kg, read-out: AUCtau,ss Mean): 5790 ng·h/mL
AUC (80 mg, 90-<100 kg, read-out: AUCtau,ss Median): 5030 ng·h/mL
Cmax (80 mg, 90-<100 kg, read-out: Cmax,ss Geometric Mean): 745 ng/mL
Cmax (80 mg, 90-<100 kg, read-out: Cmax,ss Mean): 789 ng/mL
Cmax (80 mg, 90-<100 kg, read-out: Cmax,ss Median): 795 ng/mL
AUC (80 mg, 100-<110 kg, read-out: AUCtau,ss Geometric Mean): 4370 ng·h/mL
AUC (80 mg, 100-<110 kg, read-out: AUCtau,ss Mean): 4740 ng·h/mL
AUC (80 mg, 100-<110 kg, read-out: AUCtau,ss Median): 4400 ng·h/mL
Cmax (80 mg, 100-<110 kg, read-out: Cmax,ss Geometric Mean): 624 ng/mL
Cmax (80 mg, 100-<110 kg, read-out: Cmax,ss Mean): 654 ng/mL
Cmax (80 mg, 100-<110 kg, read-out: Cmax,ss Median): 644 ng/mL
AUC (80 mg, <80 kg, read-out: AUCtau,ss Geometric Mean): 8080 ng·h/mL
AUC (80 mg, <80 kg, read-out: AUCtau,ss Mean): 9230 ng·h/mL
AUC (80 mg, <80 kg, read-out: AUCtau,ss Median): 8180 ng·h/mL
Cmax (80 mg, <80 kg, read-out: Cmax,ss Geometric Mean): 1120 ng/mL
Cmax (80 mg, <80 kg, read-out: Cmax,ss Mean): 1210 ng/mL
Cmax (80 mg, <80 kg, read-out: Cmax,ss Median): 1140 ng/mL
AUC (80 mg, ≥110 kg, read-out: AUCtau,ss Geometric Mean): 3470 ng·h/mL
AUC (80 mg, ≥110 kg, read-out: AUCtau,ss Mean): 3750 ng·h/mL
AUC (80 mg, ≥110 kg, read-out: AUCtau,ss Median): 3550 ng·h/mL
Cmax (80 mg, ≥110 kg, read-out: Cmax,ss Geometric Mean): 489 ng/mL
Cmax (80 mg, ≥110 kg, read-out: Cmax,ss Mean): 520 ng/mL
Cmax (80 mg, ≥110 kg, read-out: Cmax,ss Median): 504 ng/mL
AUC (100 mg, 80-<90 kg, read-out: AUCtau,ss Geometric Mean): 8550 ng·h/mL
AUC (100 mg, 80-<90 kg, read-out: AUCtau,ss Mean): 9660 ng·h/mL
AUC (100 mg, 80-<90 kg, read-out: AUCtau,ss Median): 7550 ng·h/mL
Cmax (100 mg, 80-<90 kg, read-out: Cmax,ss Geometric Mean): 1160 ng/mL
Cmax (100 mg, 80-<90 kg, read-out: Cmax,ss Mean): 1220 ng/mL
Cmax (100 mg, 80-<90 kg, read-out: Cmax,ss Median): 1200 ng/mL
AUC (100 mg, 90-<100 kg, read-out: AUCtau,ss Geometric Mean): 7990 ng·h/mL
AUC (100 mg, 90-<100 kg, read-out: AUCtau,ss Mean): 9010 ng·h/mL
AUC (100 mg, 90-<100 kg, read-out: AUCtau,ss Median): 7600 ng·h/mL
Cmax (100 mg, 90-<100 kg, read-out: Cmax,ss Geometric Mean): 954 ng/mL
Cmax (100 mg, 90-<100 kg, read-out: Cmax,ss Mean): 1010 ng/mL
Cmax (100 mg, 90-<100 kg, read-out: Cmax,ss Median): 1060 ng/mL
AUC (100 mg, 100-<110 kg, read-out: AUCtau,ss Geometric Mean): 6690 ng·h/mL
AUC (100 mg, 100-<110 kg, read-out: AUCtau,ss Mean): 7430 ng·h/mL
AUC (100 mg, 100-<110 kg, read-out: AUCtau,ss Median): 6250 ng·h/mL
Cmax (100 mg, 100-<110 kg, read-out: Cmax,ss Geometric Mean): 905 ng/mL
Cmax (100 mg, 100-<110 kg, read-out: Cmax,ss Mean): 958 ng/mL
Cmax (100 mg, 100-<110 kg, read-out: Cmax,ss Median): 966 ng/mL
AUC (100 mg, <80 kg, read-out: AUCtau,ss Geometric Mean): 8680 ng·h/mL
AUC (100 mg, <80 kg, read-out: AUCtau,ss Mean): 10800 ng·h/mL
AUC (100 mg, <80 kg, read-out: AUCtau,ss Median): 9610 ng·h/mL
Cmax (100 mg, <80 kg, read-out: Cmax,ss Geometric Mean): 1120 ng/mL
Cmax (100 mg, <80 kg, read-out: Cmax,ss Mean): 1310 ng/mL
Cmax (100 mg, <80 kg, read-out: Cmax,ss Median): 1370 ng/mL
AUC (100 mg, ≥110 kg, read-out: AUCtau,ss Geometric Mean): 4330 ng·h/mL
AUC (100 mg, ≥110 kg, read-out: AUCtau,ss Mean): 4940 ng·h/mL
AUC (100 mg, ≥110 kg, read-out: AUCtau,ss Median): 3900 ng·h/mL
Cmax (100 mg, ≥110 kg, read-out: Cmax,ss Geometric Mean): 575 ng/mL
Cmax (100 mg, ≥110 kg, read-out: Cmax,ss Mean): 642 ng/mL
Cmax (100 mg, ≥110 kg, read-out: Cmax,ss Median): 647 ng/mL
